Experiment [1] deals with T1, Caspase-3 (Homo sapiens, UniProt P42574).
T1 sequence (P42574 whole entry): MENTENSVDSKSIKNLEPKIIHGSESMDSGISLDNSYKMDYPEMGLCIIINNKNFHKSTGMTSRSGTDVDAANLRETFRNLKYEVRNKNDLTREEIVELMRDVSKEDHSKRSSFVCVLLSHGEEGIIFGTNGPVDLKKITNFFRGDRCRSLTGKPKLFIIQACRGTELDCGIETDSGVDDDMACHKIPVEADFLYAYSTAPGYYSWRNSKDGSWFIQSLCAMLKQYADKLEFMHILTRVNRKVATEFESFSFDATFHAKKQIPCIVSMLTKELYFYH
The format is functional.

Experiment [2] concerns the target T2, Sentrin-specific protease 7 (Homo sapiens, UniProt Q9BQF6).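 Note: Luminescence-based dose-response confirmation of ultra-high-throughput screening hits, measuring inhibition of SENP7.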
T2 sequence (Q9BQF6 whole entry): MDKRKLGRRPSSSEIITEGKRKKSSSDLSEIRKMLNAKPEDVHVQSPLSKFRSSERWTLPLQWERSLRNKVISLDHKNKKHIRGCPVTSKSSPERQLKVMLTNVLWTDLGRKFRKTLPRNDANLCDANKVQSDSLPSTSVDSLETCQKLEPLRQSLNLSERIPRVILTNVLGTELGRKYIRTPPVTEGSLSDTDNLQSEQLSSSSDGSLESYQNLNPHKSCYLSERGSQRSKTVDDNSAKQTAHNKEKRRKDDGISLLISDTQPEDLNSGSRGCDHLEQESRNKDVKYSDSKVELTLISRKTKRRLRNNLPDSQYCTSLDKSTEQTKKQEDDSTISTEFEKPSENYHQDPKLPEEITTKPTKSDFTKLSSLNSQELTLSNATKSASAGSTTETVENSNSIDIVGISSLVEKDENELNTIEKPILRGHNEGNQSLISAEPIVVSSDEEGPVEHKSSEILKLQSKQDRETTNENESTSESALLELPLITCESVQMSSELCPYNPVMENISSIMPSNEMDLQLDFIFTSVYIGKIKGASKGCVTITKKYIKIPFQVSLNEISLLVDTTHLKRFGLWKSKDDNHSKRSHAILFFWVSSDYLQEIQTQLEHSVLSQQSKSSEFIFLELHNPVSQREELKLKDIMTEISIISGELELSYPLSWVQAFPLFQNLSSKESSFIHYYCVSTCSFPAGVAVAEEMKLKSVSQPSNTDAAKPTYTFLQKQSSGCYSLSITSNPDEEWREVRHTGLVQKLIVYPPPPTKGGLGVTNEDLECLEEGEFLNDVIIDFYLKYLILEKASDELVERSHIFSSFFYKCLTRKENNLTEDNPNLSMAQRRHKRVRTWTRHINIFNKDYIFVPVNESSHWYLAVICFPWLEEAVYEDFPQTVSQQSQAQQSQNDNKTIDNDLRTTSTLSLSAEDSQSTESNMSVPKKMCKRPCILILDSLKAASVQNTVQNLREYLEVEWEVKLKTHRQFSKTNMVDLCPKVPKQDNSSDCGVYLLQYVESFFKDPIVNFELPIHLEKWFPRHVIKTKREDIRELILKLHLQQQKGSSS
The format is functional.

In experiment [3] the target is T3, Sentrin-specific protease 6 (Homo sapiens, UniProt Q9GZR1).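 Note: Luminescence-based dose-response confirmatory assay of SENP6 inhibition, following up an ultra-high-throughput screen.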
T3 sequence (Q9GZR1 whole entry): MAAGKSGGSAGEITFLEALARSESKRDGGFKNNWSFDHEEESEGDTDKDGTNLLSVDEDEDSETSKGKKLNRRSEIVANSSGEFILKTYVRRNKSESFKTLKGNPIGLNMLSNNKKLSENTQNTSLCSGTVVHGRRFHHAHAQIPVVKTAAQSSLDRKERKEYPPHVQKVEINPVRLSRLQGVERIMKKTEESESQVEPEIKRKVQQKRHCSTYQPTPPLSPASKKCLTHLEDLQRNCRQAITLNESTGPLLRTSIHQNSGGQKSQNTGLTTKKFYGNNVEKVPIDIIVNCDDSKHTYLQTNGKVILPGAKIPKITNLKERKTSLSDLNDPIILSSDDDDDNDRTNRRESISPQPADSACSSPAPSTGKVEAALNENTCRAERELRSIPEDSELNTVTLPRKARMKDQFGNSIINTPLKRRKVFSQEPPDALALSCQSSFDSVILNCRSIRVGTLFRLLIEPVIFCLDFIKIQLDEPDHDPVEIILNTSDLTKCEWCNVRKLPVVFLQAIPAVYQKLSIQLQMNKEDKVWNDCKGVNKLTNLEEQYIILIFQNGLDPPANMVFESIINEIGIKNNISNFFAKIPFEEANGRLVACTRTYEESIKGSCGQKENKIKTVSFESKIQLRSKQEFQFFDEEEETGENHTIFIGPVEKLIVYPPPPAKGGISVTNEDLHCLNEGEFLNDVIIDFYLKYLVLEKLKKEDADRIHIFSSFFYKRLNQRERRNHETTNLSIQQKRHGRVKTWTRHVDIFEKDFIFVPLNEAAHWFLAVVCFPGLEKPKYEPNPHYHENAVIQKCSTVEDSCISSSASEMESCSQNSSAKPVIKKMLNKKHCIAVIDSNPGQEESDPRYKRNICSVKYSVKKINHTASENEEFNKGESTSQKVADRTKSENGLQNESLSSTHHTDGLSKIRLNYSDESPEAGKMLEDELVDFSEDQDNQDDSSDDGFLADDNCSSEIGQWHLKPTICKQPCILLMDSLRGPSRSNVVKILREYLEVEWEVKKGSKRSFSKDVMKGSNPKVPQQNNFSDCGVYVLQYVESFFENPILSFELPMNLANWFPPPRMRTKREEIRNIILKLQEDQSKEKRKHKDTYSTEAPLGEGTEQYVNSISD
Format: functional.

Experiment [4] concerns the target T4, Sentrin-specific protease 8 (Homo sapiens, UniProt Q96LD8).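 Note: luminescence read-out of SENP8 inhibition, dose-response confirmation following an ultra-high-throughput screen.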
T4 sequence (Q96LD8 whole entry): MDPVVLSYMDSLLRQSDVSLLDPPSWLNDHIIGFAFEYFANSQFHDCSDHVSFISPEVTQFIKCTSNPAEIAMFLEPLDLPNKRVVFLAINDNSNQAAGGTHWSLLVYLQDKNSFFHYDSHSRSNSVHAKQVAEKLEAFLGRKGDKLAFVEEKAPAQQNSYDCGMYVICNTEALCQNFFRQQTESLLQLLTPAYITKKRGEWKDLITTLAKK
The format is functional.

Experiment [5] is described as follows: Shn3 3'UTR reporter inhibitors, dose response, cell-based, Clone20 osteoblasts, firefly luciferase, cherry-picked (AID 624132).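 Note: firefly luciferase luminescence from reporter carrying the Shn3 3'UTR in osteoblasts.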 The format is functional.
Experiment [6] in a line: HepG2 cell cytotoxicity, dose response, cytotoxicity control for Shn3 inhibitor project, CellTiter-Glo, cherry-picked (AID 624134). Format: functional, cell-based.
A short description of experiment [7]: control 3'UTR Renilla luciferase suppression, dose response, counter-screen for Shn3 inhibitor project, cell-based, Clone20-Shn3RL, cherry-picked (AID 624133). The format is functional.
The target of experiment [8] is T5, Probable nicotinate-nucleotide adenylyltransferase (Staphylococcus aureus (strain N315), UniProt P65502). The format is functional, Staphylococcus aureus subsp. aureus N315.
In experiment [9] the target is T5, Probable nicotinate-nucleotide adenylyltransferase. The format is functional, Staphylococcus aureus subsp. aureus N315. The note with it: read-out: IC50_Mean.
A short description of experiment [10]: inhibitors of firefly luciferase expression or activity, dose response, H4 neuroglioma cells, luminescence (AID 1990). Format: functional, cell-based.
A short description of experiment [11]: Luminescence Cell-Based Dose Response HTS to Identify Inhibitors of 5'UTR Stem-Loop Driven Prion Protein mRNA Translation in H4 Neuroglioblastoma Cells. [Related pubchem assays: 1827 (Project Summary), 1813 (Primary HTS)]. The format is functional.
Experiment [12] addresses T6, Heat shock factor protein 1 (Mus musculus, UniProt P38532).
T6 sequence (P38532 whole entry): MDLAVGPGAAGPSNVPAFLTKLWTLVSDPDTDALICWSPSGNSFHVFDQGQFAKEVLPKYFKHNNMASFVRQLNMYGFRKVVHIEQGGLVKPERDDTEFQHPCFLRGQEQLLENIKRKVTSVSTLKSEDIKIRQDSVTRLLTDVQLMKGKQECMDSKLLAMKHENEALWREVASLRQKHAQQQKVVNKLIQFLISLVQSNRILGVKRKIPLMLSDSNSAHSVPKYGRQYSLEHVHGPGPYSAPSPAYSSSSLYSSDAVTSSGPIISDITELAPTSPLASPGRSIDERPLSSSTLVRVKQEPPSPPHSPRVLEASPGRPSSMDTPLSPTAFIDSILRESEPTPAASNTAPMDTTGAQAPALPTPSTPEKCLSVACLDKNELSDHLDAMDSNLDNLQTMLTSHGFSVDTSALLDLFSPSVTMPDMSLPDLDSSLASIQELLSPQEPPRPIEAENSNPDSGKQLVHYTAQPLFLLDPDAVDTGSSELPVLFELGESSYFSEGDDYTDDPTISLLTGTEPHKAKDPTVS
Kind of experiment: inhibition of MG132-induced HSE-luciferase signal, confirmation, cell-based, NIH3T3, luminescence, dose retest (AID 2382).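 Note: NIH3T3 fibroblasts with HSF1-driven luciferase reporter stressed by proteasome inhibitor MG132; luminescence from HSF1-driven luciferase expression after 8 hours of MG132 stress.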 Format: functional.

The nature of experiment [13]: inhibitors of SNCA 5'UTR-driven reporter translation, confirmation, H4 neuroglioma cells, luminescence (AID 1988). The format is functional, cell-based.
The target in experiment [14] is Luciferin 4-monooxygenase (Photinus pyralis, UniProt P08659). The experiment is described as follows: firefly luciferase enzyme inhibitors, dose response, biochemical, luminescence (AID 1891).
Experiment [15] is described as follows: Luminescence Cell-Based Dose Confirmation HTS to Identify Inhibitors of Platelet Dense Granule Release. [Related pubchem assays: 1663 (Primary HTS), 1678 (Summary of Project)]. Format: functional.
Experiment [16] addresses T7, Protein skinhead-1 (Caenorhabditis elegans, UniProt P34707).
T7 sequence (P34707 whole entry): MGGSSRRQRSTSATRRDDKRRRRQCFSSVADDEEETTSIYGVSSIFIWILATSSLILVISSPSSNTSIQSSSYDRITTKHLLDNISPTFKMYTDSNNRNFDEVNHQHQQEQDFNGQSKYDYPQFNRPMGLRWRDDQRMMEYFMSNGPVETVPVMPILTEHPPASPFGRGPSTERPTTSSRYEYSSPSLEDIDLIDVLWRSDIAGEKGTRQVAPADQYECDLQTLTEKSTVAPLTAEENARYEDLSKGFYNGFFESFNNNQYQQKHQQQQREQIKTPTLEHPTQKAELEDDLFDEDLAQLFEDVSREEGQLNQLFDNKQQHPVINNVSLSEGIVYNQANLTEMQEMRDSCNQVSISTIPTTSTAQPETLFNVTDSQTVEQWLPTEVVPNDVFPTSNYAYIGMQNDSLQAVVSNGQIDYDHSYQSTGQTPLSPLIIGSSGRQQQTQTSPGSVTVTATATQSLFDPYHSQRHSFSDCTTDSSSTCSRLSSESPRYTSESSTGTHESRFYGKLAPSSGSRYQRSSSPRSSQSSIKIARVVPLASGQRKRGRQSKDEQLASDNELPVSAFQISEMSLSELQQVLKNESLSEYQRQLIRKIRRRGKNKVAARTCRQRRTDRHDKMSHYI
Format: functional.

Experiment [17] can be described thus: cells. Format: functional.
A short description of experiment [18]: microbe, parasite or virus in culture. Format: functional. The note with it: Mycobacterium tuberculosis.

The values below come from ChEMBL document CHEMBL1201862, “PubChem BioAssay data set” (2004).

Structures are written as SMILES. The source made the active and inactive calls.

One may read the AC50 as the concentration at which the activity in the assay is half-maximal. The term EC50 denotes the concentration needed to bring the measured effect to its halfway point.
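Throughout, for IC50 Mean: confirmatory dose-response retesting of NadD inhibitor hits first found in an ultra-high-throughput screen.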

T5 sequence (P65502 whole entry): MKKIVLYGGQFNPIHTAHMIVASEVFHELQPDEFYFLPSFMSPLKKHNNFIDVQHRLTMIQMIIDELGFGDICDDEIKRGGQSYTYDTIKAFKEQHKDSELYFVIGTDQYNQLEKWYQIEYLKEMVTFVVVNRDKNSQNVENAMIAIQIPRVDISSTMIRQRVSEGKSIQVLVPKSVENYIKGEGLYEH
Sequence of Luciferin 4-monooxygenase (P08659 whole entry): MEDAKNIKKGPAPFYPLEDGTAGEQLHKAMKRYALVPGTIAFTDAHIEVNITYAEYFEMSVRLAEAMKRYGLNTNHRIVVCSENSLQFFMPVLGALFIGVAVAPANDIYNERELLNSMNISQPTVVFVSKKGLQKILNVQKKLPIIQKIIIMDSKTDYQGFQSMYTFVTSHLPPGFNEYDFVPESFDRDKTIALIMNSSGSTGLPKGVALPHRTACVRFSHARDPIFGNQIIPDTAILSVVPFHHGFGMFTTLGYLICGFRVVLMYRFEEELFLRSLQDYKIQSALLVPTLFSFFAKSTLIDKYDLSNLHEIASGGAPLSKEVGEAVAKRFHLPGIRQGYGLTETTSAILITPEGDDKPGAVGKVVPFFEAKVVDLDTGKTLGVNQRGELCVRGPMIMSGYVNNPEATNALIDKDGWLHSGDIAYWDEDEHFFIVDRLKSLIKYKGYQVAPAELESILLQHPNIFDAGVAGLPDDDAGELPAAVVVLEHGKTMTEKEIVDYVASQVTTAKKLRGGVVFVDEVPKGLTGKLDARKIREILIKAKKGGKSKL

For the compound `O=c1c2ccccc2nnn1COc1cccc(Cl)c1`, the IC50 in experiment [1] is 16.1 µM (active); in experiment [2], 6.41 µM (active); in experiment [3], 34 µM (active); in experiment [4] it was 6.62 µM (active).
On to `CCc1c(C)nc2ncnn2c1NCCc1ccc(Cl)cc1`, for which the AC50 is 2.17 µM (active) in [5], 60.2 µM (active) in experiment [6] and 3.82 µM (active) in experiment [7].
Consider `O=C(COC(=O)c1ccc(Oc2ccccc2)cc1)Nc1nnc(-c2ccccc2)o1`, for which the IC50 in experiment [8] was 9.58 µM (active); in [9] it was 23.8 µM (active).
Taken in the same sequence, the figures for `Cc1ccc(C)c(NC(=O)C(OC(=O)c2ccc(NC(=O)CC#N)cc2)c2ccccc2)c1` (stereo not given) were 11.4 µM (active) and 42.7 µM (active).
For the compound `COc1cccc(/C=C2\CCC(C3CCCC3)C2=O)c1` (stereo not given), the IC50 was 27.3 µM (active) in experiment [1], 11.8 µM (active) in [2], 25.5 µM (active) in experiment [3] and 33.4 µM (active) in experiment [4].
Consider `COc1ccc2c(c1)sc1nc(-c3ccccc3)cn12`, for which the EC50 in experiment [10] is 0.681 µM (active); in experiment [11] it was 0.388 µM (active); in experiment [12], 2.23 µM (active); in experiment [13] it was 0.299 µM (active); in experiment [14] it was 0.669 µM (active); in experiment [15], 4.62 µM (active). Besides, the AC50 was 7.37 µM (active) in [5], 42.3 µM (active) in experiment [6] and 13.2 µM (active) in experiment [7]. Moreover, the IC50 in experiment [16] was > 100 µM (inactive).
For the compound `COc1ccc(OC(=O)c2cc3ccccc3o2)cc1`, the IC50 in experiment [1] was 33 µM (active); in experiment [2], 5.34 µM (active); in [3], > 100 µM (inactive); in experiment [4], > 100 µM (inactive); in [17], 16.6 µM (active).
Regarding `Cc1ccc(NC(=O)CSc2ccc3c(c2)OCCO3)c(O)c1`, the half-maximal activity concentration (AC50) in [5] was 0.343 µM (active); in [6], 7.27 µM (active); in experiment [7] it was 0.525 µM (active).
Take `Cc1ccc(F)cc1CNC(=O)c1cc(COc2ccc3ncccc3c2)on1`: the CC50 in [18] is > 40 µM (active). Also, the AC50 was 4.88 µM (active) in experiment [5], 6.33 µM (active) in experiment [6] and 4.3 µM (active) in experiment [7].
As for `Cc1cccc(C(=O)Nc2cccc(C(=O)N/N=C/c3ccc4c(c3)OCO4)c2)c1`, the IC50 in [1] is 13 µM (active); in experiment [2], 14.2 µM (active); in experiment [3] it was 15.2 µM (active); in experiment [4] it was 35 µM (active).
As for `COc1ccc2ccccc2c1/C=N/NC(=O)c1nnn(-c2nonc2N)c1C(C)C`, the IC50 in experiment [8] was 38 µM (active); in experiment [9], 78 µM (active).
The like results for `CCc1cccc2c(/C=N/NC(=O)c3cccc(S(=O)(=O)Nc4ccccc4Cl)c3)c[nH]c12` were, in that order, 11.2 µM (active) and 31.2 µM (active).
